Assay results from the NIST ThermoML archive (doi:10.1016/j.jct.2009.04.002).
Values joined by “and” are separate entries in the source; they are usually repeats but may differ in a detail not shown here. Identical values can stand only once.

Conditions: Liquid

CC(C)CCCCCCCOC(=O)c1ccccc1C(=O)OCCCCCCCC(C)C
Conditions	mass density, Vibrating tube method	viscosity, Falling or rolling sphere viscometry
303.15 K, 60000 kPa	–	251 mPa·s and 250 mPa·s
313.15 K, 100 kPa	–	38 mPa·s and 38.5 mPa·s
313.15 K, 1000 kPa	–	38.7 mPa·s and 39.3 mPa·s
313.15 K, 5000 kPa	–	42.2 mPa·s and 42.8 mPa·s
313.15 K, 10000 kPa	–	46.9 mPa·s and 47.6 mPa·s
313.15 K, 20000 kPa	–	57.8 mPa·s and 58.8 mPa·s
313.15 K, 30000 kPa	–	71.1 mPa·s and 72.4 mPa·s
313.15 K, 40000 kPa	–	87.2 mPa·s and 88.8 mPa·s
313.15 K, 50000 kPa	–	107 mPa·s and 109 mPa·s
313.15 K, 60000 kPa	–	130 mPa·s and 132 mPa·s
323.15 K, 100 kPa	945.4 kg/m3 and 945.7 kg/m3 and 945.2 kg/m3	–
323.15 K, 1000 kPa	945.8 kg/m3 and 946.3 kg/m3	–
323.15 K, 5000 kPa	948.4 kg/m3 and 948.8 kg/m3 and 948.3 kg/m3	–
323.15 K, 10000 kPa	951.5 kg/m3 and 951.9 kg/m3 and 951.4 kg/m3	–
323.15 K, 20000 kPa	957.4 kg/m3 and 957.9 kg/m3	–
323.15 K, 30000 kPa	962.9 kg/m3 and 963.3 kg/m3 and 962.8 kg/m3	–
323.15 K, 40000 kPa	968.1 kg/m3 and 968.5 kg/m3 and 968 kg/m3	–
323.15 K, 50000 kPa	973.1 kg/m3 and 973.4 kg/m3 and 973 kg/m3	–
323.15 K, 60000 kPa	977.8 kg/m3 and 978.1 kg/m3 and 977.7 kg/m3	–
323.15 K, 70000 kPa	982.3 kg/m3 and 982.6 kg/m3 and 982.2 kg/m3	–
333.15 K, 100 kPa	938.4 kg/m3 and 938.7 kg/m3 and 938.2 kg/m3	16.1 mPa·s and 15.5 mPa·s and 16 mPa·s
333.15 K, 1000 kPa	938.9 kg/m3 and 939.3 kg/m3 and 938.8 kg/m3	16.4 mPa·s and 15.7 mPa·s and 16.3 mPa·s
333.15 K, 5000 kPa	941.6 kg/m3 and 942 kg/m3 and 941.5 kg/m3	17.7 mPa·s and 17 mPa·s and 17.6 mPa·s
333.15 K, 10000 kPa	–	19.5 mPa·s and 18.6 mPa·s and 19.3 mPa·s

Conditions	mass density, SVM3000 rotational viscometer	viscosity, Rotational Automated Viscometer
303.15 K	959.7 kg/m3 and 959.8 kg/m3 and 959.4 kg/m3	64.31 mPa·s and 65.45 mPa·s and 65.32 mPa·s
308.15 K	956.2 kg/m3 and 956.3 kg/m3 and 955.9 kg/m3	48.46 mPa·s and 49.29 mPa·s and 49.16 mPa·s
313.15 K	952.7 kg/m3 and 952.8 kg/m3 and 952.4 kg/m3	37.35 mPa·s and 37.97 mPa·s and 37.87 mPa·s
318.15 K	949.2 kg/m3 and 949.3 kg/m3 and 948.9 kg/m3	29.38 mPa·s and 29.83 mPa·s and 29.75 mPa·s
323.15 K	945.7 kg/m3 and 945.8 kg/m3 and 945.3 kg/m3	23.51 mPa·s and 23.87 mPa·s and 23.79 mPa·s
328.15 K	942.2 kg/m3 and 941.8 kg/m3	19.13 mPa·s and 19.41 mPa·s and 19.35 mPa·s
